12 compounds from patent publication US20210220241A1, “Body Sculpting” (Sculpt B.V., priority 2014, published 2021) can be followed below.

Data set [1] is described as follows: Stability / hydrolysis in PBS at 37 degrees (Example 6). The data set is classed as physicochemical. As to conditions: PBS at 37 degrees. As for the experimental part:
Samples were analyzed using HPLC UV.

In data set [2] the test system is human fat suspension. Put plainly: In vitro glycerol production assay, 250 mg/ml human fat suspension (Example 9). The data set is classed as cell-based. As to conditions: for Glycerol production (FIG. 20): 250 mg/ml human fat suspension, 4 hrs at 37 degrees Celsius; for Glycerol content: 4 hrs at 37° C. As for the experimental part: Test compounds were added at a concentration as indicated and vials were incubated for 4 hrs at 37° C. Vials were mixed every hour. Glycerol production in 4 hrs was calculated by analyzing glycerol content of the control (a suspension which was not incubated but instead immediately frozen) vs control samples that were incubated for 4 hours. The produced glycerol quantity was set as 100%. The glycerol content of experimental samples was expressed as % of the control.
Experimental samples were frozen after incubation. The fat pellet was removed and upon defrosting, samples were spun down (13000 rpm for 15 min at 4° C.), and clear supernatant was pipetted off and frozen until analysis.
Glycerol was analyzed using an enzymatic kit (Glycerol Assay Kit, Sigma Aldrich). Briefly, in a 96 well plate (Corning), 100 microliter glycerol assay reaction mix was added to 10 microliter samples of supernatant and left to incubate for 20 minutes after shaking for 15 seconds. Absorbance was read by a platereader (Thermo Multiskan FC) at 570 nm. A glycerol calibration line (0.015 microM-1000 microM) was used for quantification.

Data set [3] deals with lipase. Conditions: inhibitor added 5 minutes before, relative to control; for Effect on hydrolysis of octopamine decanoate in fat suspension: octopamine decanoate 10 microM; for Effect on hydrolysis of synephrine decanoate in fat suspension: synephrine decanoate 10 microM.
The test system of data set [4] is Male wistar rats. Description: In vivo effect of hydrogel treatment on waist, weight and plasma glycerol of rats (Example 5). More on the design: species or system rat. As for the experimental part:
Male wistar rats (approx. 500 g) were weight daily and waistline was measured. Animals were shaven once weekly at least 12 hours before next treatment to ensure wound healing.
Animals were first treated for 1 month with carbomer hydrogel not containing prodrugs (twice daily abdominal application 3 by 3 cm) , after which animals were treated with 0.5 ml carbomer hydrogel containing 5 mg/ml octopamine decanoate (application concentration 0.277 mg/cm^2). Tail vena blood draws (100 microliter plasma, 5 microliter heparine 500 IE per 100 microliter blood) were taken on the day −8, 21, 36 (start of compound treatment), 51 and 58. Blood was spun off (10 min 14 KRPM) and plasma was stored at −80.
Blood samples were analyzed for glycerol using an enzymatic kit (Sigma Aldrich) and fluorescence intensity was measured using direct flow injection (Vici valve in combination with shimadzu 10 ADvp hplc pump at 0.15 ml/min, thermo 15*2.1 C18 column prior to valve and using ultrapure water as mobile phase) of 20 microliter into a HPLC fluorescence detector (Shimadzu RF 10Axl). Calibration was performed by preparation of calibration samples 2-1000 microM.

The nature of data set [5]: In vitro ester hydrolysis assay in PBS/human fat suspension. The data set is classed as in vitro ADME. Conditions: PBS/human fat tissue at concentrations three times higher than rat tissue, in 110 min. On the procedure:
Abdominal fat tissue was harvested from male wistar rats (400 g, Harlan Zeist) and stored at −80° C. until use. Human fat tissue was obtained from esthetic surgery and stored at −80° C. until use. Tissue was thuraxed (80 mg/ml for rat tissue and 240 mg/ml for human tissue) for 1 min in Phosphate buffered saline (PBS (Irvine Scientific).
(§1) Octopamine released was measured using a 50 ml beaker thermostated at 30 degrees. 30 ml PBS (stirred) was pumped at 1 ml/min (Gilson minipulse 3) through a UV detector (SPD-10Avp Shimadzu UV/VIS) set at 280 nm and 2.56 AUFS. The outlet was recirculated back to the beaker. UV signal was recorder on a flatbed recorder (Kipp), set at 1 mm/min and 1 mV gain.
(§2) Octopamine and octopamine decanoate solutions (1 mM) were made in ultrapure water adding 1 microliter/ml of 1.8% hydrochloride acid. Octopamine decanoate was sonicated for 30 min at 30 degrees.
(§3) Upon stabilization of the UV detector on PBS, 1 ml of tissue suspension was added to the PBS. Upon stabilization of the UV signal, 5 ml of 1 mM of octopamine decanoate was added. Control experiments were performed without addition of tissue suspension in order to monitor spontaneous hydrolysis of decanoate ester in PBS.

Data set [6] can be described thus: Skin and fat penetration assay, cubes of human fat with skin (Example 8). It is filed as in vitro ADME. As for the experimental part: Cubes of human fat (5×5×5 cm) with skin attached from obese female subjects that underwent esthetic surgery was dissected at 4° C. Cubes were transferred to containers so the skin would overlay the rim of the container. 0.25 ml of hydrogels comprising 2.75 mg/ml free octopamine, 5 mg/ml octopamine decanoate or 3.98 mg/ml octopamine pentanoate were applied once and left to penetrate for 20 hrs. Cubes were subsequently frozen at −80° C.
Upon defrosting, skin was carefully removed taking care not to contaminate the underlying fat. The fat was dissected to yield a column of 1×1 cm of fat that was directly under the site of application. The column was sliced to yield 0.5 cm thick slices covering 0-2cm fat depth under the site of application. Tissue was sonicated in 5 ml PBS (5 mM glucose), samples were spun down (13000 rpm for 30 min at 4° C.). Clear supernatant was removed with an injection needle and syringe and frozen until analysis. Analysis of octopamine was performed as described in Example 7.

For data set [7] the following is noted: female, human, 15 min, 10 microM.
Protocol: Human belly adipose tissue was obtained from obese female subjects that underwent esthetic surgery. Tissue was pottered (Potter RW 19 Nr 29795 of Janke & Kunkel KG) in PBS solution (Irvine Scientific) with 5 mM D(+)-glucose monohydrate at 530 rpm using a Teflon potter tip.
Tissue suspension (1, 7.5, 25 or 240 mg fat/ml PBS, or plasma) was stirred and 1.98 ml aliquots were transferred to polypropylene 2 ml screwcap vials (Sarstedt). […] When inhibition of lipase was studied, propranolol or orlistat were added 5 minutes before addition of the prodrug esters (FIG. 10).
15 minutes after addition of the prodrug, lipolysis was stopped by adding 20 microliter of 1.8% HCl. Samples were spun down (13000 rpm for 3 min at 4° C.) and supernatants were stored at −18° C. for analysis.
Samples were analyzed using HPLC UV. A Gilson 234 auto-injector and Shimadzu hplc pump (10 AdVP) was used in conjunction with a shimadzu UV (10AVp) set at 270 nm. Samples were separated using a reversed phase HPLC column (Thermo BDS Hypersil C18 150 mm×2.1 mm, 3 micrometer). The mobile phase consisted of 1.6 g KH2PO4, 110 mg sodium 1-heptane sulfonate, 1 1 ultrapure water, 15 mL methanol and 1 ml acetic acid at a flowrate of 0.175 ml/min.
Data set [8] relates to human volunteers. Put plainly: Application on human volunteers: waistline and skinfold (Example 10). The data set is classed as in vivo. On the procedure: For abdominal/hip experiments 2 male volunteers […] (BMI 25.5 and 28 resp.) monitored belly circumference, and skinfold at belly and hip on a daily basis (8 am mornings). Blood pressure and body weight was monitored daily. […] Hydrogel was applied daily or twice daily as indicated using a 5 ml syringe to measure volume. For abdominal experiments, the indicated volume of hydrogel was applied on the belly around the belly button in a radius of 10 cm. The same volume was applied for hip areas. For leg experiments, 2.5 ml was applied on each leg. Skinfold was assessed by measuring thickness of skin at hips and belly 4 cm from belly button using a skinfold measuring device ([…]-120). […] Experiments are the average of two experiments (n=2). […] Experiments are an average of 2 or 3 runs (n=2-3).

The nature of data set [9]: Plasma levels of octopamine in human volunteers (Example 10). It is filed as in vivo. Conditions: human, in vivo. On the procedure:
After thorough washing of hands, blood was sampled using […]. Blood (40 microliter) was sampled using a capillary that protruded the cap of the vial and spun down into 300 microliter vials containing 10 microliter of heparin 20 IE/ml. Plasma was pipetted off and transferred to 300 microliter vials and stored at -20° C. until analysis. Octopamine was analyzed as described in Example 7. […] FIG. 17b), and of octopamine pentanoate (3.98 mg/ml, 2.5 ml, once daily); FIG. 17c). Experiments are an average of one or two experiments (n=1-2).

The nature of data set [10]: In vitro ester hydrolysis assay, control in PBS without tissue (spontaneous hydrolysis). Conditions: 30 degrees. It is filed as physicochemical. As for the experimental part:
as §1, §2, §3

The test system of data set [11] is human fat suspension. Put plainly: In vitro assay of glycerol production in human fat (Example 3). The data set is classed as cell-based. As to conditions: end concentration 10 microM, 2 hours at 37 degrees Celsius; P=0.047. As for the experimental part: Human fat tissue was pottered using a teflon potter in 10 ml PBS with 6 mM Glucose (2.4 gram fat tissue per 10 ml). The suspension was transferred to a 50 ml beaker and was gently stirred at 37 degrees Celsius to maintain the homogeneous nature. 0.3 ml suspension was transferred to 2 ml reaction vials, spiked with octopamine (end concentration 1 microM) and octopamine decanoate (end concentration 10 microM and PBS/glucose were added until 2 ml end volume. Vials were incubated at 37 degrees Celsius for 2 hours.
Samples were spun off at 4000 rpm for 2 min and 10 microliter samples were taken after removal of floating fat with a tissue.
Samples were analyzed using an enzymatic kit (Sigma Aldrich) and fluorescence intensity was measured using direct flow injection (Vici valve in combination with Shimadzu 10 ADvp HPLC pump at 0.15 ml/min, thermo 15*2.1 C18 column prior to valve and using ultrapure water as mobile phase) of 20 microliter into a HPLC fluorescence detector (Shimadzu RF 10Ax1). Calibration was performed by preparation of calibration samples 2-1000 microM.

For data set [12], the system named is human volunteers. Put plainly: Blood pressure, heart rate and side effects in human volunteers (Example 10). Conditions: humans.
Where [13] appears, read: hydrogel 5 mg/ml, 5 ml twice daily on belly and hips.

Counter-ions that a name gives are not always drawn.

In the case of `CNCC(O)c1ccc(O)cc1` (racemic) [synephrine, p-synephrine, reference compound], in data set [1], the “Stability in PBS” value is given as “stable”.
On to `CC(C)(C)NCC(O)COc1cccc2[nH]c(=O)[nH]c12` (centres unmarked) [CGP12177], for which the “Glycerol production (FIG. 20)” value in data set [2] is reported as “increased”.
Still for that read-out and setting: to `C[C@H](Cc1ccc2c(c1)OC(C(=O)[O-])(C(=O)[O-])O2)NC[C@H](O)c1cccc(Cl)c1.[Na+].[Na+]` [CL 316243] belongs “increased”.
In the case of `CCCCCCCCCCC[C@@H](C[C@@H]1OC(=O)[C@H]1CCCCCC)OC(=O)[C@H](CC(C)C)NC=O` [Orlistat], in data set [3], the “Effect on hydrolysis of octopamine decanoate in fat suspension” value was “further suppresses” and the “Effect on hydrolysis of synephrine decanoate in fat suspension” value was “further suppresses”.
With `CCOC(=O)COc1ccc2c(c1)C[C@@H](NC[C@H](O)c1cccc(Cl)c1)CC2` [SR 58611A, Amibegron], the “Glycerol production (FIG. 20)” value in data set [2] is listed as “increased”.
For the compound `CCc1ccccc1OC[C@@H](O)CN[C@H]1CCCc2ccccc21` [SR 59230], the “Glycerol production (FIG. 20)” value in [2] is given as “reduced”.
Same read-out and setting: to `Cn1c(=O)c2c(ncn2C)n(C)c1=O` [caffeine] belongs “increased”.
`CCCCCCCCCC(=O)Oc1ccc(C(O)CN)cc1` (centres unmarked) [octopamine decanoate, 4-(2-amino-1-hydroxyethyl)phenyl decanoate]: the Animal weights result in data set [4] (0.5 ml hydrogel 5 mg/ml twice daily abdominal) was “remained inclining according to their growth curve”. Further, the Reduction of waistline entry in [4] (0.5 ml hydrogel 5 mg/ml twice daily abdominal, after 3 weeks of treatment) is on record as “about 10%”. Moreover, the Plasma glycerol levels entry in [4] (after 15 days of treatment, P=0.101) is reported as “increased”; in data set [4] (after 22 days of treatment, P=0.024), “reaching significance”. For the same compound, the Conversion by hydrolysis entry in [5] is recorded as “over 40%”. The “Penetration through skin and fat tissue” value in [6] is “penetrate through both skin and fat tissue”. For the same compound, the “Base level of hydrolysis in fat suspension” value in data set [7] is recorded as 40-45%. For the same compound, in data set [8] (humans n=2, hydrogel on belly and hips, 2.5 ml once daily or 5 ml twice daily, same molar concentration, after 16 days), the Decrease of waistline result is “about 4%”. Besides, the “Reduction of skinfold (belly and hip)” value in data set [8] (hydrogel 5 mg/ml, 5 ml twice daily, in 20 days) is listed as 10-20%. Further, in data set [9], the “Plasma levels of free octopamine upon administration of hydrogel” value was “did not result in unacceptable plasma levels”. Moreover, in data set [1], the “Hydrolysis in PBS compared with plasma or fat tissue” value is recorded as “much lower rate”. In addition, the “Spontaneous hydrolysis into octopamine, rate” value in data set [10] is 10 % per 110 min. Besides, in data set [11], the “Glycerol production (levels)” value is on record as “reached significance”. Moreover, in data set [12] (setting [13]), the “Blood pressure (systole and diastole)” value is recorded as “remained normal”. The Heart rate entry in data set [12] (setting [13]) is reported as “remained normal”. Besides, in data set [12] (topical hydrogel treatment regimes), the Side effects entry is recorded as “No side effects were reported”.
With `CC(C)NC[C@H](O)COc1cccc2ccccc12` [propranolol, (S)-(-)-Propranolol HCl], the “Effect on hydrolysis of octopamine decanoate in fat suspension” value in data set [3] was “decreases”. Further, the “Effect on hydrolysis of synephrine decanoate in fat suspension” value in data set [3] is “decreases”. For the same compound, the Glycerol content entry in [2] (concentrations above 1000 nM) is given as “decreased”; in [2] (concentrations from 0.1 to at least 1000 nM), “more or less constant”.
Consider `CCCCCCCCCC(=O)Oc1ccc(C(O)CNC)cc1` (centres unmarked) [synephrine decanoate, 4-(1-hydroxy-2-(methylamino)ethyl)phenyl decanoate], for which the “Base level of hydrolysis in fat suspension” value in [7] is 40-45%. Besides, the “Hydrolysis in PBS compared with plasma or fat tissue” value in data set [1] is reported as “much lower rate”.
For the compound `Cc1cccc(C)c1N=C1NCCCS1` [xylazine, Xylazine], the “Glycerol production (FIG. 20)” value in data set [2] is recorded as “reduced”.
With `COC(=O)[C@@H]1[C@H]2C[C@H]3c4[nH]c5ccccc5c4CCN3C[C@@H]2CC[C@@H]1O` [yohimbine, Yohimbine], the “Glycerol production (FIG. 20)” value in data set [2] was “increased”.
